# Laboratory results from patent publication US10844071B2, “Substituted [1,2,3]triazolo[4,5-d]pyrimidines that lower stress-induced p-tau” (BUCK INSTITUTE FOR RESEARCH ON AGING, priority 2015, dated 2020).
# Entries after “also recorded” stand apart in the source; their conditions may differ. Read-outs that look alike come from different tables or passages of the source.
# How the values were obtained:
# CRFR2 = molecular target: T1, CRFR2 (Homo sapiens, UniProt Q13324); experiment: CRFR2 binding (Ki)
# T1 sequence (Q13324 1-411): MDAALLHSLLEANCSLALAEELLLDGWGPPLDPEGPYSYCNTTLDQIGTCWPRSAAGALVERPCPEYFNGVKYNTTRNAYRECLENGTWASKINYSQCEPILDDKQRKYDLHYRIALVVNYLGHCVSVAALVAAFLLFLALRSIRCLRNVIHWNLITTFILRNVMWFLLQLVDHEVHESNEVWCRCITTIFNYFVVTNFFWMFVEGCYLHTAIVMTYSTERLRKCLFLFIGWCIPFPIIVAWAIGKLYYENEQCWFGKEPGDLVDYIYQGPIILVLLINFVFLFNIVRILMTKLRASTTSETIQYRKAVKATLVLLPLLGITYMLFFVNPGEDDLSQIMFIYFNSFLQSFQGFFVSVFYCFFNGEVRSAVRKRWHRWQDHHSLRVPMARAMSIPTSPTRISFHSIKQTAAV
# SH-SY5Y cells [1] = experiment: Secondary screen in SH-SY5Y cells with CRF stimulation (tau, p-tau, sAPPα); type: cell-based
# Method: (§1) As described below, in vitro studies were performed using SHSY-5Y cells. These cells are a useful neurological model that differentiate into cells with morphological and biochemical characteristics of mature neurons including mature isoforms of tau.
# In an initial study, SHSY-5Y cells were cultured without serum to induce differentiation and increase tau expression. […] The increases were proportional and both were about 50%. J03 (FIG. 4A) reduced the CRF-induced tau increases more than the p-tau increases. The increase in p-tau with CRF was expected, but the increase in tau less predictable as CRF reduces neuronal differentiation (see Chen et al. (2004) Proc. Natl. Acad. Sci. USA, 101(44): 15782-15787), however, it can increase tau accumulation.
# J20 mice [2] = experiment: J03 pilot study #1 in J20 mice (SQ, 12 days); type: in vivo, mouse; conditions: SQ 10 mkd
# Method: (§2) Animal experiments were performed using J20 mice. The J20 mouse is a model of for Alzheimer's disease. This model overexpresses human APP with two mutations linked to familial Alzheimer's disease (the APP KM670/671NL (Swedish) and […] (Indiana) mutations).
# In pilot study #1, J20 mice housed singly were treated by SQ injection of J02 in PEG/b-MCD at 10 mkd for 12 days. NOR analysis of object memory (N=5/group) was performed. […] There was no difference in Aβ1-40 (panel B), but a decrease in Aβ1-42 (panel C).
# SH-SY5Y cells [3] = experiment: Primary screen in SH-SY5Y cells (tau, p-tau); type: cell-based
# Method: as §1
# However, J04 did lower p-tau to the same level as J03 and significant may not have been reached due to low N #.
# Solubility in DMSO = type: physicochemical; conditions: organic solvent or mixture, read-out: Solubility
# J20 mice [4] = experiment: J03 pilot study #2 in J20 mice (oral, longer duration); type: in vivo, mouse; conditions: oral delivery
# Method: as §2
# Based on these promising results, the study was repeated (pilot study #2) with oral delivery and a longer duration.
# J20 mice [5] = experiment: J17 pilot study in J20 mice (oral, 28 days); type: in vivo, mouse
# Method: as §2
# In a J17 pilot study (#1 pilot study) male and female J20 mice were housed singly and treated with J17 at 10 mkd by oral delivery for 28 days. […]
# p-tau = experiment: Cortisol-induced (stress-induced) p-tau increase in vitro; type: cell-based
# Description: To identify therapeutic candidates, a clinical library of CRF-1R inhibitors to was screened to determine their effects on cortisol-induced p-tau increases. […] J03 was shown specifically to inhibit stress-induced p-tau increases by cortisol in vitro.
# PAMPA = type: in vitro ADME; conditions: Tertiary
# [6] = In vivo pharmacokinetics, brain and plasma levels; parameters: species or system mouse
# CRF1 = molecular target: T2, CRF1 (Homo sapiens, UniProt P34998); experiment: CRF1 binding (Ki)
# T2 sequence (P34998 24-415): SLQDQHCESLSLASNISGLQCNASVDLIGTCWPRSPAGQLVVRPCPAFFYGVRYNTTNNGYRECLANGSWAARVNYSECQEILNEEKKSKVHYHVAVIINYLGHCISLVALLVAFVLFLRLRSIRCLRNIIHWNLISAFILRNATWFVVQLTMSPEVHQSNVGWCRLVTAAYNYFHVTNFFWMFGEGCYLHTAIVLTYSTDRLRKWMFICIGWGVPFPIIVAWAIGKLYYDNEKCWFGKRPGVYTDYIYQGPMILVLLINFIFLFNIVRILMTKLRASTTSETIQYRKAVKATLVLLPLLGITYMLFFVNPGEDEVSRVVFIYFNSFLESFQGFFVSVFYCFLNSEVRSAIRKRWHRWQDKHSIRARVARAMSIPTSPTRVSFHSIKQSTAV
# [7] = SH-SY5Y cells, CRF-induced increase
compound,measurement,setting,value
"CCC(COC)n1nnc2c(Nc3ccc(OC)cc3C)nc(C)cc21 (centres unmarked) [Compound J03, N-(4-Methoxy-2-methylphenyl)-1-[1-(methoxymethyl)propyl]-6-methyl-1H-1,2,3-triazolo[4,5-c]pyridine-4-amine]",Ki,CRFR2,> 10 µM
same,p-tau/tau ratios,"SH-SY5Y cells [1]; 50 and 100 nM CRF, FIG. 28 panel C",highly significantly decreased
same,sAPPα,"SH-SY5Y cells [1]; FIG. 28 panel D, significance for J03 at 100 nM CRF",trend for sAPPα to be higher
same,p-tau after CRF exposure,SH-SY5Y cells [1]; [7],reduces; also recorded: decreased
same,tau after CRF exposure,SH-SY5Y cells [1]; [7],reduces; also recorded: decreased
same,sAPPα after CRF exposure,"SH-SY5Y cells [1]; SH-SY5Y cells, FIG. 19",lower
same,sAPPα (%),"SH-SY5Y cells [1]; Secondary (SH-Sy5Y, CRF stimulation)",Unchanged
same,tau,"SH-SY5Y cells [1]; absence of CRF and presence of 100 nM CRF, FIG. 28 panel A",significantly decreased
same,p-tau,"SH-SY5Y cells [1]; presence and absence of CRF, FIG. 28 panel B",significantly reduced
same,Aβ1-40,J20 mice [2],no difference
same,Aβ1-40/1-42 ratio,J20 mice [2],significantly increased
same,Aβ1-42,J20 mice [2],decrease
same,P-tau,J20 mice [2],significantly lower
same,SAPP (sAPPα levels),J20 mice [2],very slightly increased
same,sAPP/Aβ1-42 ratio,J20 mice [2],very slightly increased
same,p-tau/tau ratio,J20 mice [2]; great individual variation,slightly higher
same,Total tau,J20 mice [2]; largely due to one mouse,decreased
same,behavior (NOR analysis of object memory),J20 mice [2]; single housed J20 mice,slight improvement
same,Tau %,SH-SY5Y cells [3]; Primary (SH-SY5Y),Unchanged
same,p-tau,"SH-SY5Y cells [3]; SH-SY5Y cells, no CRF",decreased
same,solubility,Solubility in DMSO,~10 mM
same,Aβ1-40,J20 mice [4],unchanged
same,Aβ1-40/Aβ1-42 ratio,J20 mice [4],unchanged
same,Aβ1-42,J20 mice [4],unchanged
same,novel location assay,J20 mice [4],performed well
same,novel object assay,J20 mice [4],performed well
same,sAPPα,J20 mice [4],increased slightly
same,sAPPα/sAPPβ ratio,J20 mice [4],slightly increased
same,sAPPβ,J20 mice [4],unchanged
same,p-tau,J20 mice [4]; decrease reached statistical significance,decreased
same,novel object preference,J20 mice [5]; all mice,increased novel object preference more than 17
same,sAPPα,J20 mice [5]; both genders,increase
same,sAPPα/sAPPβ ratio,J20 mice [5]; males,slight increase
same,activity (total interactions),J20 mice [5]; not significant,lowered
same,stress-induced p-tau increases by cortisol,p-tau,inhibit
same,PAMPA,PAMPA,0.92
same,brain levels,"[6]; 10 mk subcutaneous (SQ) injection, J20 mice",low
same,concentration at 2 h,"[6]; J20, mouse, brain, two hours after oral dosing in formulation, first day of pilot study #2",170 ng/g
same,brain levels,"[6]; end of pilot study #2, oral dosing",about 35 ng/g
same,Ki,"CRF1; Tertiary, read-out: CRF1 Ki",7 nM
same,Ki,CRF1; read-out: CRF-1 antagonist Ki,~7.9 nM
